Measurements published in US6352958B1, “Cycloimido-substituted benzofused heterocyclic herbicides” (FMC Corporation, priority 1997, dated 2002).

Key:
Assay type in all cases: in vivo
[1] = system: morningglory (Ipomea lacunosa or Ipomea hederacea); experiment: Postemergence herbicidal activity, morningglory; conditions: rate of application 0.3 Kg/Ha, rated after 12-17 days
[2] = system: Johnsongrass (Sorghum halepense); experiment: Postemergence herbicidal activity, johnsongrass; conditions: rate of application 0.3 Kg/Ha, rated after 12-17 days
[3] = system: field corn (Zea mays var. Pioneer 3732); experiment: Postemergence herbicidal activity, corn; conditions: rate of application 0.3 Kg/Ha, rated after 12-17 days
[4] = system: soybean (Glycine max var. Winchester); experiment: Preemergence herbicidal activity, soybean; conditions: Rate of Application 0.3 Kg/Ha, examined after 12-17 days
[5] = system: wheat (Triticum aestivum var. Lew); experiment: Postemergence herbicidal activity, wheat; conditions: rate of application 0.3 Kg/Ha, rated after 12-17 days
[6] = system: blackgrass (Aloepecurus myosuroides); experiment: Postemergence herbicidal activity, blackgrass; conditions: rate of application 0.3 Kg/Ha, rated after 12-17 days
[7] = system: field corn (Zea mays var. Pioneer 3732); experiment: Preemergence herbicidal activity, corn; conditions: Rate of Application 0.3 Kg/Ha, examined after 12-17 days
[8] = system: velvetleaf (Abutilon theophrasti); experiment: Postemergence herbicidal activity, velvetleaf; conditions: rate of application 0.3 Kg/Ha, rated after 12-17 days
[9] = system: common chickweed (Stellaria media); experiment: Preemergence herbicidal activity, chickweed; conditions: Rate of Application 0.3 Kg/Ha, examined after 12-17 days
[10] = system: common chickweed (Stellaria media); experiment: Postemergence herbicidal activity, chickweed; conditions: rate of application 0.3 Kg/Ha, rated after 12-17 days
[11] = system: blackgrass (Aloepecurus myosuroides); experiment: Preemergence herbicidal activity, blackgrass; conditions: Rate of Application 0.3 Kg/Ha, examined after 12-17 days
[12] = system: morningglory (Ipomea lacunosa or Ipomea hederacea); experiment: Preemergence herbicidal activity, morningglory; conditions: Rate of Application 0.3 Kg/Ha, examined after 12-17 days
[13] = system: velvetleaf (Abutilon theophrasti); experiment: Preemergence herbicidal activity, velvetleaf; conditions: Rate of Application 0.3 Kg/Ha, examined after 12-17 days
[14] = system: green foxtail (Setaria viridis); experiment: Preemergence herbicidal activity, green foxtail; conditions: Rate of Application 0.3 Kg/Ha, examined after 12-17 days
[15] = system: Johnsongrass (Sorghum halepense); experiment: Preemergence herbicidal activity, johnsongrass; conditions: Rate of Application 0.3 Kg/Ha, examined after 12-17 days
[16] = system: green foxtail (Setaria viridis); experiment: Postemergence herbicidal activity, green foxtail; conditions: rate of application 0.3 Kg/Ha, rated after 12-17 days
[17] = system: common cocklebur (Xanthium strumarium L.); experiment: Preemergence herbicidal activity, cocklebur; conditions: Rate of Application 0.3 Kg/Ha, examined after 12-17 days
[18] = system: soybean (Glycine max var. Winchester); experiment: Postemergence herbicidal activity, soybean; conditions: rate of application 0.3 Kg/Ha, rated after 12-17 days
[19] = system: common cocklebur (Xanthium strumarium L.); experiment: Postemergence herbicidal activity, cocklebur; conditions: rate of application 0.3 Kg/Ha, rated after 12-17 days
[20] = system: wheat (Triticum aestivum var. Lew); experiment: Preemergence herbicidal activity, wheat; conditions: Rate of Application 0.3 Kg/Ha, examined after 12-17 days

SMILES	Postemergence herbicidal activity (% control) IPOSS [1] [%]	Postemergence herbicidal activity (% control) SORHA [2] [%]	Postemergence herbicidal activity (% control) CRN [3] [%]	PREEMERGENCE HERBICIDAL ACTIVITY (% CONTROL) SOY [4] [%]	Postemergence herbicidal activity (% control) WHT [5] [%]	Postemergence herbicidal activity (% control) ALOMY [6] [%]	PREEMERGENCE HERBICIDAL ACTIVITY (% CONTROL) CRN [7] [%]	Postemergence herbicidal activity (% control) ABUTH [8] [%]	PREEMERGENCE HERBICIDAL ACTIVITY (% CONTROL) STEME [9] [%]	Postemergence herbicidal activity (% control) STEME [10] [%]	PREEMERGENCE HERBICIDAL ACTIVITY (% CONTROL) ALOMY [11] [%]	PREEMERGENCE HERBICIDAL ACTIVITY (% CONTROL) IPOSS [12] [%]	PREEMERGENCE HERBICIDAL ACTIVITY (% CONTROL) ABUTH [13] [%]	PREEMERGENCE HERBICIDAL ACTIVITY (% CONTROL) SETVI [14] [%]	PREEMERGENCE HERBICIDAL ACTIVITY (% CONTROL) SORHA [15] [%]	Postemergence herbicidal activity (% control) SETVI [16] [%]	PREEMERGENCE HERBICIDAL ACTIVITY (% CONTROL) XANPE [17] [%]	Postemergence herbicidal activity (% control) SOY [18] [%]	Postemergence herbicidal activity (% control) XANPE [19] [%]	PREEMERGENCE HERBICIDAL ACTIVITY (% CONTROL) WHT [20] [%]
Cn1c(C(F)(F)F)cc(=O)n(-c2c(F)cc(Cl)c3[nH]c(C45CC6CC(CC(C6)C4)C5)nc23)c1=O [Compound 374]	95	60	30	30	25	25	10	100	90	80	40	95	100	100	75	80	80	80	100	0
CCCC(C)c1cc2c(Cl)cc(F)c(-n3c(=O)cc(C(F)(F)F)n(C)c3=O)c2o1 (stereo not drawn) [Compound 229]	100	100	80	100	60	70	90	100	100	100	80	100	100	100	100	100	95	95	100	70
CNC(=O)OCCc1cc2c(Cl)cc(F)c(-n3c(=O)cc(C(F)(F)F)n(C)c3=O)c2o1 [Compound 261]	100	100	100	100	80	100	95	100	100	100	80	100	100	100	100	100	90	95	100	80
Cn1c(C(F)(F)F)cc(=O)n(-c2c(F)cc(Cl)c3c2nc(C(F)(F)F)n3C)c1=O [Compound 399]	100	60	70	95	30	50	95	100	100	100	60	95	100	100	0	70	70	95	100	80
CCOC(=O)c1cc2cccc(-n3c(=O)cc(C(F)(F)F)n(C)c3=O)c2o1 [Compound 267]	40	20	50	0	15	20	20	80	0	10	50	10	10	5	0	30	50	50	10	10
CNC(=O)c1cc2c(Cl)cc(F)c(-n3c(=O)cc(C(F)(F)F)n(C)c3=O)c2o1 [Compound 274]	100	100	95	100	60	90	90	100	90	90	95	100	100	100	100	100	100	95	100	100
CCOC(=O)c1cc2c(-n3c(=O)cc(C(F)(F)F)n(C)c3=O)c(F)cc(Cl)c2[nH]1 [Compound 493]	100	100	90	80	60	65	90	100	100	80	75	100	100	100	100	100	70	95	100	70
Cn1c(C(F)(F)F)cc(=O)n(-c2ccc(Cl)c3cc(-c4ccccc4)oc23)c1=O [Compound 264]	40	20	50	0	20	0	10	40	20	0	0	0	20	10	10	–	30	50	30	0
